Measured values published in patent publication US20250199015A1, “CYCLIN-DEPENDENT KINASE 2 INHIBITORS FOR MEDICAL TREATMENT” (INCYCLIX BIO, LLC, priority 2022, published 2025).

Assay: Bidirectional permeability (A-B, B-A Papp)
Format: in vitro ADME

With `NS(=O)(=O)c1ccc(Nc2ncc3cc4n(c3n2)C2(CCCCC2)C(=O)NN4)cc1` [Compound I] the permeability was “moderate permeability”, the Papp A→B (not told) was 3.28 to 6.67 ×10⁻⁶ cm/s and the Papp B→A (not told) was 42 to 68.3 ×10⁻⁶ cm/s.
